Columns and labels:
CCRF-CEM [1] = assay: In vitro growth inhibitory effect in human T-cell acute leukemia cells CCRF-CEM; assay type: functional, cell-based
CCRF-CEM [2] = assay: Percentage increase in caspase-3 activity of CCRF-CEM human T-leukemia cells.; assay type: functional

Structure (SMILES) | IC50 (CCRF-CEM [1]) [µM] | Increase (CCRF-CEM [2]) [%]
CCCCCCCCCCCCCCc1nc(S)nc(O)c1CC | – | 1.2
CCCCCCCCCCCCCCc1nc(O)nc(O)c1CC | – | 1.7

Now from value to compound, other results behind:

IC50 (CCRF-CEM [1]) [µM] | Structure (SMILES) | Increase (CCRF-CEM [2]) [%]
31.6 | CCCCCCCCCCCCC/C=C/[C@@H](O)[C@H](CO)NC(C)=O | 2.8
7.9 | CCCCCCCCCCCCCCc1c(O)nc(O)nc1CC | 8.1
1.7 | CCCCCCCCCCCCCCc1c(O)nc(S)nc1CC | 5
